The structures appear in SMILES notation. Starred links: 1 amine or outer side, 2 acyl side, 3 side chain; linkers in the order of their positions; H or OH if unused. Positions of bridges follow the written chain, without caps; N, C: chain ends. Non-standard residues stand in square brackets, D forms with d. Residues, ends and D or L forms follow the SMILES beside them. *: point of attachment. hPhe(3-Cl-4-CF3) = N[C@@H](CCc1ccc(C(F)(F)F)c(Cl)c1)C(=O)O; hPhe(4-CF3) = N[C@@H](CCc1ccc(C(F)(F)F)cc1)C(=O)O; NMePhe(4-Cl) = CN[C@@H](Cc1ccc(Cl)cc1)C(=O)O; X62 = O=C([C@H](Cc1cc(I)ccc1Br)N[*:1])[*:2]; NMePhe(2-Cl) = CN[C@@H](Cc1ccccc1Cl)C(=O)O; Phe(3-OMe) = COc1cccc(C[C@H](N)C(=O)O)c1; hNle(7,7-F2) = N[C@@H](CCCCC(F)F)C(=O)O; NMeGly(cPent) = CN[C@H](C(=O)O)C1CCCC1; Phe(3-I) = N[C@@H](Cc1cccc(I)c1)C(=O)O; NMeY = CN[C@@H](Cc1ccc(O)cc1)C(=O)O; NMeCha = CN[C@@H](CC1CCCCC1)C(=O)O; NMehLeu = CN[C@@H](CCC(C)C)C(=O)O; NMeAhp(2) = CCCCC[C@H](NC)C(=O)O; NMeCba = CN[C@@H](CC1CCC1)C(=O)O; NMeF = CN[C@@H](Cc1ccccc1)C(=O)O; NMeI = CC[C@H](C)[C@H](NC)C(=O)O; hPhe = N[C@@H](CCc1ccccc1)C(=O)O; NMeD = CN[C@@H](CC(=O)O)C(=O)O; NMeL = CN[C@@H](CC(C)C)C(=O)O; NMeV = CN[C@H](C(=O)O)C(C)C; Azetidin(1-yl) = C1CN(*)C1; NMeAbu = CC[C@H](NC)C(=O)O; Morpholide = C1CN(*)CCO1; NMeA = CN[C@@H](C)C(=O)O; NMeAib = CNC(C)(C)C(=O)O; Nle = CCCC[C@H](N)C(=O)O; Piperidide = C1CCN(*)CC1; Pyrrolidide = C1CCN(*)C1; Ac5c = NC1(C(=O)O)CCCC1; Aze = O=C(O)[C@@H]1CCN1; Sar = CNCC(=O)O

The assay deals with T1, Kras and SOS1 (biotin-tagged human Kras loaded with GDP, His-tagged human SOS1) (Homo sapiens, UniProt P01116, G12D).
T1 construct: made in house; host or cells: E. coli (stated for Kras only)
T1 sequence (P01116 1-188 isoform P01116-2 G12D): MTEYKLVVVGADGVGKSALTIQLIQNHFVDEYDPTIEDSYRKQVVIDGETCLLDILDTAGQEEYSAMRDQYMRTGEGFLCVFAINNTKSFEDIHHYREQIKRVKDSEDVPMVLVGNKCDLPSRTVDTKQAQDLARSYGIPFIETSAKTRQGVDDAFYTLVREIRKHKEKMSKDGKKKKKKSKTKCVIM
As to the kind of experiment: Protein-protein interaction inhibition between Kras and SOS1 (KrasGl2D-SOS PPI) using AlphaScreen. In kind it is binding. To be noted: AlphaScreen; biotin-tagged human Kras loaded with GDP, His-tagged human SOS1; read-out: KRAS G12D-SOS PPI IC50. In a few lines: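 Energy transfer from nickel-chelate donor beads bound to His-SOS1 to streptavidin acceptor beads bound to biotin-Kras, expressed in E. coli and loaded with GDP after purification, was monitored. Donors were excited at 680 nm; singlet oxygen reaching acceptors gave emission read at 520-620 nm.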
As to `CCCC[C@@H]1NC(=O)[C@H](Cc2cccc(I)c2)NC(=O)CN(C)C(=O)[C@H](CC2CCC2)N(C)C(=O)[C@@H]2CCN2C(=O)[C@H](C)N(C)C(=O)[C@H]([C@@H](C)CC)NC(=O)[C@H](CC(C)C)N(C)C(=O)C[C@@H](C(=O)N2CCCCC2)N(C)C(=O)[C@H](CC(C)C)NC(=O)C(C)(C)N(C)C1=O` [Compound 1413] ([NMeL]I[NMeA][Aze][NMeCba][Sar][Phe(3-I)][Nle][NMeAib]L[NMeD]-Piperidide; lactam N-11), the IC50 was determined as 190 nM.
As for `CC[C@H](C)[C@@H]1NC(=O)[C@H](C)N(C)C(=O)C[C@@H](C(=O)N2CCCC2)NC(=O)[C@H](CC(C)C)N(C)C(=O)[C@H](Cc2ccccc2)N(C)C(=O)[C@H](CCCCC(F)F)NC(=O)[C@H](CCc2ccc(C(F)(F)F)cc2)NC(=O)CN(C)C(=O)[C@H](Cc2ccc(Cl)cc2)N(C)C(=O)CN(C)C(=O)CN(C)C1=O` [Compound 1092] ([NMeA]I[Sar][Sar][NMePhe(4-Cl)][Sar][hPhe(4-CF3)][hNle(7,7-F2)][NMeF][NMeL]D-Pyrrolidide; lactam N-11), the half-inhibitory concentration (IC50) worked out at 41 nM.
Then `CCCC[C@@H]1NC(=O)[C@H](Cc2cccc(I)c2)NC(=O)CN(C)C(=O)[C@H](Cc2ccc(Cl)cc2)N(C)C(=O)CN(C)C(=O)CN(C)C(=O)[C@H]([C@@H](C)CC)NC(=O)[C@H](CC(C)C)N(C)C(=O)C[C@@H](C(=O)N2CCCC2)N(C)C(=O)[C@H](CCc2ccccc2)NC(=O)C(C)(C)N(C)C1=O` [Compound 1430] ([NMeL]I[Sar][Sar][NMePhe(4-Cl)][Sar][Phe(3-I)][Nle][NMeAib][hPhe][NMeD]-Pyrrolidide; lactam N-11), with 400 nM.
`CC[C@H](C)[C@@H]1NC(=O)[C@H](CC(C)C)N(C)C(=O)C[C@@H](C(=O)N2CCOCC2)N(C)C(=O)[C@H]([C@@H](C)CC)N(C)C(=O)C2(CCCC2)NC(=O)[C@@H]2CCCN2C(=O)[C@H](CCc2ccc(C(F)(F)F)c(Cl)c2)NC(=O)CN(C)C(=O)[C@H](CC2CCCCC2)N(C)C(=O)CN(C)C(=O)CN(C)C1=O` [Compound 1979] ([NMeL]I[Sar][Sar][NMeCha][Sar][hPhe(3-Cl-4-CF3)]P[Ac5c][NMeI][NMeD]-Morpholide; lactam N-11): the half-maximal inhibitory concentration (IC50) is 0.64 nM.
In the case of `CC[C@H](C)[C@@H]1NC(=O)[C@H](CCC(C)C)N(C)C(=O)C[C@@H](C(=O)N2CCC2)N(C)C(=O)[C@H](C2CCCC2)N(C)C(=O)C2(CCCC2)NC(=O)[C@@H]2CCCN2C(=O)[C@H](CCc2ccc(C(F)(F)F)c(Cl)c2)NC(=O)CN(C)C(=O)[C@H](CC2CCCCC2)N(C)C(=O)[C@@H]2CCN2C(=O)[C@H](C)N(C)C1=O` [Compound 806] ([NMehLeu]I[NMeA][Aze][NMeCha][Sar][hPhe(3-Cl-4-CF3)]P[Ac5c][NMeGly(cPent)][NMeD]-{Azetidin(1-yl)}; lactam N-11), the IC50 is 1.1 nM.
As to `CCCCC[C@H]1C(=O)N(C)[C@H](C(=O)N2CCCCC2)CC(=O)N(C)[C@@H](CC(C)C)C(=O)N[C@@H]([C@@H](C)CC)C(=O)N(C)CC(=O)N(C)CC(=O)N(C)[C@@H](CC2CCCCC2)C(=O)N(C)CC(=O)N[C@@H](CCc2ccc(C(F)(F)F)c(Cl)c2)C(=O)N2CCC[C@H]2C(=O)NC2(CCCC2)C(=O)N1C` [Compound 1719] ([NMeL]I[Sar][Sar][NMeCha][Sar][hPhe(3-Cl-4-CF3)]P[Ac5c][NMeAhp(2)][NMeD]-Piperidide; lactam N-11), the IC50 came to 18 nM.
As to `CC[C@H](C)[C@@H]1NC(=O)[C@H](C)N(C)C(=O)C[C@@H](C(=O)N2CCCC2)N(C)C(=O)[C@H](C(C)C)N(C)C(=O)[C@@H](C)NC(=O)[C@H](Cc2ccccc2Cl)N(C)C(=O)[C@H](CCc2ccc(C(F)(F)F)c(Cl)c2)NC(=O)CN(C)C(=O)[C@H](CC2CCCCC2)N(C)C(=O)CN(C)C(=O)CN(C)C1=O` [Compound 702] ([NMeA]I[Sar][Sar][NMeCha][Sar][hPhe(3-Cl-4-CF3)][NMePhe(2-Cl)][dA][NMeV][NMeD]-Pyrrolidide; lactam N-11), the IC50 was found to be 130 nM.
As for `CCCC[C@@H]1NC(=O)[C@H](Cc2cccc(OC)c2)NC(=O)CN(C)C(=O)[C@H](Cc2ccc(Cl)cc2)N(C)C(=O)CN(C)C(=O)CN(C)C(=O)[C@H]([C@@H](C)CC)NC(=O)[C@H](CC(C)C)N(C)C(=O)C[C@@H](C(=O)N2CCCC2)N(C)C(=O)[C@H](CC(C)C)NC(=O)C(C)(C)N(C)C1=O` [Compound 1412] ([NMeL]I[Sar][Sar][NMePhe(4-Cl)][Sar][Phe(3-OMe)][Nle][NMeAib]L[NMeD]-Pyrrolidide; lactam N-11), the IC50 was 310 nM.
Then `CCCC[C@@H]1NC(=O)[C@H](Cc2cc(I)ccc2Br)NC(=O)CN(C)C(=O)[C@H](Cc2ccc(OC)cc2)N(C)C(=O)[C@@H]2CCN2C(=O)[C@H](C)N(C)C(=O)[C@H]([C@@H](C)CC)NC(=O)[C@H](CC)N(C)C(=O)C[C@@H](C(=O)N2CCCCC2)N(C)C(=O)[C@H](CC(C)C)NC(=O)C(C)(C)N(C)C1=O` [Compound 1155] ([NMeAbu]I[NMeA][Aze][NMeY](Me)[Sar][X62][Nle][NMeAib]L[NMeD]-Piperidide; lactam N-11), with 170 nM.

For orientation: IC50 means the concentration needed to halve the response being measured.

The values are drawn from patent publication US12371454B2, “Cyclic peptide compound having Kras inhibitory action” (priority 2019, dated 2025).
